Experimental data as given in patent US10005817B2, “Peptide pharmaceuticals” (EUMEDERIS PHARMACEUTICALS, INC., priority 2012, dated 2018).
Positions of bridges follow the written chain, without caps; N, C: chain ends. Non-standard residues stand in square brackets, D forms with d. Residues, ends and D or L forms follow the SMILES beside them. *: point of attachment. GlcA(β-D,1-O-dodecyl) = CCCCCCCCCCCCO[C@@H]1O[C@H](C(=O)*)[C@@H](O)[C@H](O)[C@H]1O; βGlcA(1-OMe) = CO[C@@H]1O[C@H](C(=O)*)[C@@H](O)[C@H](O)[C@H]1O; Phe(2,4,6-Me3) = Cc1cc(C)c(C[C@H](N)C(=O)O)c(C)c1; Dmt = Cc1cc(O)cc(C)c1C[C@H](N)C(=O)O; hArg = N=C(N)NCCCC[C@H](N)C(=O)O; Nle = CCCC[C@H](N)C(=O)O; Ac5c = NC1(C(=O)O)CCCC1; Aib = CC(C)(N)C(=O)O

Legend:
PTH receptor (PTHR1) = biological target: T1, PTH receptor (PTHR1) (Homo sapiens, UniProt Q03431); assay: PTH1 cellular assay, cAMP, agonist mode (SaOS2 cells, Cerep); type: cell-based; details: for Emax: SAOS-2, read-out: Maximal response (% PTHrP)
T1 construct: Cerep SA
T1 sequence (Q03431 27-593): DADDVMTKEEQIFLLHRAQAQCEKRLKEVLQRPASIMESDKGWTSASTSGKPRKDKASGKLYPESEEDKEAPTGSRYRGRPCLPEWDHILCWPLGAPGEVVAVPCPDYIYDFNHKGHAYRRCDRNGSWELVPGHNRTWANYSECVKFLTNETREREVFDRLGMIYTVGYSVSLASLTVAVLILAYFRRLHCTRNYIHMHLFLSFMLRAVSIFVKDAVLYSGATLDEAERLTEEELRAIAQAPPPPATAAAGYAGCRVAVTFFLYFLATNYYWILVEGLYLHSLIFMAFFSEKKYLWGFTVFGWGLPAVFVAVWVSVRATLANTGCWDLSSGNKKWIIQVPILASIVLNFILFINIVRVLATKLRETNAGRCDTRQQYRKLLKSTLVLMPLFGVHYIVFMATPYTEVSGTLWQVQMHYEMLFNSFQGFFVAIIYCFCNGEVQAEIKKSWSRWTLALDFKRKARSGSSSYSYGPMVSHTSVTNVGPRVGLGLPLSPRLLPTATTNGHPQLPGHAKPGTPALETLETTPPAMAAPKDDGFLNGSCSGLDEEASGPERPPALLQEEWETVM
Description: Compounds were weighed precisely in an amount of approximately 1 mg and assayed in standard cellular assays (cerep SA). The readout is the amount of cAMP generated in the cells treated with the test compounds, in either agonist or antagonist mode.
Compounds were dissolved in water and diluted in assay buffer containing 1% bovine serum albumin.

mu opioid receptor = biological target: T2, mu opioid receptor (Homo sapiens, UniProt P35372); assay: mu opioid receptor cellular assay (MOP), agonist mode, cAMP readout (Cerep); type: cell-based
T2 construct: Cerep
T2 sequence (P35372 whole entry): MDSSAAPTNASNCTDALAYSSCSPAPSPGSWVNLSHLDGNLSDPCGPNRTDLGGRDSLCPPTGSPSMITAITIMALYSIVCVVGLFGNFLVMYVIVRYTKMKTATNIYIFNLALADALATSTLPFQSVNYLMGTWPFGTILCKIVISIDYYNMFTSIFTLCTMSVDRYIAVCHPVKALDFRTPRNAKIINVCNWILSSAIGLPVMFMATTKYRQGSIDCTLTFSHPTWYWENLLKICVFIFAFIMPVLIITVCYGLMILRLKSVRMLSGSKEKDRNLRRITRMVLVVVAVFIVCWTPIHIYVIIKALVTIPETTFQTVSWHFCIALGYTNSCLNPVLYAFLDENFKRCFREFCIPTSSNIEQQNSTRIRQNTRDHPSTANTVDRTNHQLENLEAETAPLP
Description: Compounds were weighed precisely in an amount of approximately 2 mg and assayed in standard cellular assays by the contract research organization Cerep, Inc. (Pullman, Wash.) as executed at their subsidiary, Cerep SA (Le Bois l'Eveque, France). The readout is the amount of cAMP generated in the cells treated with the test compounds, in either agonist or antagonist mode. The assays used were the mu opioid receptor cellular assay (MOP in agonist and antagonist mode), the delta2 opioid receptor cellular assay (DOP in agonist and antagonist mode) and the kappa opioid receptor cellular assay (KOP in agonist and antagonist mode). The assays used are described in Wang, J. B., et al. (1994) FEBS Lett 338: 217-222, Law, P. Y. and Loh, H. H. (1993) Mol Pharmacol 43: 684-693, and Avidor-Reiss, T., et al. (1995) FEBS Lett 361: 70-74. The stimulant for the cells in the DOR antagonist assay was 3×10E-8M DPDPE, a well-accepted DOR literature standard.

db/db mice = assay: db/db mice, blood glucose after s.c. dosing; type: in vivo, mouse; details: db/db mice, s.c., 250 nmole/kg
Description: The 60 female db/db B6BKS (D) Leprdb/J (strain 000697) mice for this study were approximately 8 to 9 weeks old at arrival (Jackson Laboratory, Bar Harbor, Me.). […] One group of 8 female mice served as the vehicle control and received the vehicle, 0.2% BSA in saline, pH 7.4. One additional group of 8 female mice received the positive control article, liraglutide, at a dose level of 50 nmoles/kg. The test articles, vehicle, and positive control article were administered on Day 1, at approximately 0, 7, and 24 hours during the study via subcutaneous injection at a dose volume of 6 mL/kg.
Clinical observations were conducted at receipt, prior to randomization, and daily from Days 1 to 5. Body weights were measured and recorded at receipt, prior to randomization, and daily from Days 1 to 5. Food consumption was measured and recorded daily from Days 1 to 5. Blood samples for glucose analysis were collected pretest (Day −3) and at 0, 1, 2, 4, 8, 10, 24, 48, 72, and 96 hours following the first dose on Day 1. At study termination all animals were euthanized and the carcasses were discarded without further evaluation.

Row | SMILES | Characterization (PTH receptor (PTHR1)) | Emax (PTH receptor (PTHR1)) [%] | Mean Blood Glucose (db/db mice; 0 hr) [mg/dL] | Mean Blood Glucose (db/db mice; 10 hr) [mg/dL] | Mean Blood Glucose (db/db mice; 24 hr) [mg/dL] | Mean Blood Glucose (db/db mice; 48 hr) [mg/dL] | further results
1 | CCCCCCCCCCCCO[C@@H]1O[C@H](C(=O)NCCCC[C@H](NC(=O)[C@H](CCC(N)=O)NC(=O)[C@@H](NC(=O)[C@H](Cc2c[nH]c3ccccc23)NC(=O)[C@H](CCCNC(=N)N)NC(=O)[C@H](C)NC(=O)[C@H](CCCCNC(=N)N)NC(=O)[C@H](CCC(N)=O)NC(=O)[C@H](Cc2c[nH]cn2)NC(=O)[C@H](CCCC)NC(=O)[C@H](CC(C)C)NC(=O)[C@H](CCC(N)=O)NC(=O)[C@@H](NC(=O)[C@H](CCC(=O)O)NC(=O)C(C)(C)NC(=O)[C@@H](NC(=O)C2(N)CCCC2)C(C)C)[C@@H](C)CC)[C@@H](C)CC)C(N)=O)[C@@H](O)[C@H](O)[C@H]1O [EU-204] (H-[Ac5c]V[Aib]EIQL[Nle]HQ[hArg]ARWIQK(GlcA(β-D,1-O-dodecyl))-NH2) | agonist | 135 |  |  |  |  | EC50 (PTH receptor (PTHR1)): 20 nM
2 | CCCCCCCCCCCCO[C@@H]1O[C@H](C(=O)NCCCC[C@H](NC(=O)C(C)(C)NC(=O)[C@H](CCC(N)=O)NC(=O)[C@@H](NC(=O)[C@H](Cc2c[nH]c3ccccc23)NC(=O)[C@H](CCCNC(=N)N)NC(=O)[C@H](C)NC(=O)[C@H](CCCCNC(=N)N)NC(=O)[C@H](CCC(N)=O)NC(=O)[C@H](Cc2c[nH]cn2)NC(=O)[C@H](CCCC)NC(=O)[C@H](CC(C)C)NC(=O)[C@H](CCC(N)=O)NC(=O)[C@@H](NC(=O)[C@H](CCC(=O)O)NC(=O)C(C)(C)NC(=O)[C@@H](NC(=O)C2(N)CCCC2)C(C)C)[C@@H](C)CC)[C@@H](C)CC)C(N)=O)[C@@H](O)[C@H](O)[C@H]1O [EU-207] (H-[Ac5c]V[Aib]EIQL[Nle]HQ[hArg]ARWIQ[Aib]K(GlcA(β-D,1-O-dodecyl))-NH2; N-terminus assumed) | agonist | 110 |  |  |  |  | 
3 | CCCCCCCCCCCCO[C@@H]1O[C@H](C(=O)NCCCC[C@H](NC(=O)[C@H](CC(C)C)NC(=O)[C@H](Cc2ccccc2)NC(=O)[C@@H]2CCC(=O)NCCCC[C@H](NC(=O)[C@H](CC(=O)O)NC(=O)[C@H](CCC(N)=O)NC(=O)[C@@H](NC(=O)[C@H](Cc3c[nH]c4ccccc34)NC(=O)[C@H](CCCNC(=N)N)NC(=O)[C@H](C)NC(=O)[C@H](CCCCNC(=N)N)NC(=O)[C@H](CCC(N)=O)NC(=O)[C@H](Cc3c[nH]cn3)NC(=O)[C@H](CCCC)NC(=O)[C@H](CC(C)C)NC(=O)[C@H](CCC(N)=O)NC(=O)[C@@H](NC(=O)[C@H](CCC(=O)O)NC(=O)C(C)(C)NC(=O)[C@@H](NC(=O)C3(N)CCCC3)C(C)C)[C@@H](C)CC)[C@@H](C)CC)C(=O)N[C@@H](CCCNC(=N)N)C(=O)N[C@@H](CCCNC(=N)N)C(=O)N[C@@H](CCCNC(=N)N)C(=O)N2)C(=O)NC(C)(C)C(N)=O)[C@@H](O)[C@H](O)[C@H]1O [EU-284] (H-[Ac5c]V[Aib]EIQL[Nle]HQ[hArg]ARWIQDKRRREFLK(GlcA(β-D,1-O-dodecyl))[Aib]-NH2; lactam 18-22; N-terminus assumed) | agonist | 110 |  |  |  |  | 
4 | CO[C@@H]1O[C@H](C(=O)NCCCC[C@H](NC(=O)[C@H](Cc2c(C)cc(C)cc2C)NC(=O)[C@@H]2CCCN2C(=O)[C@@H](N)Cc2c(C)cc(O)cc2C)C(N)=O)[C@@H](O)[C@H](O)[C@H]1O [EU-A101, Dmt-Pro-Tmp-Lys(C1-glucuronyl)-NH2] (H-[Dmt]P[Phe(2,4,6-Me3)]K(βGlcA(1-OMe))-NH2) |  |  |  |  |  |  | Characterization (MOP) (mu opioid receptor): pure agonist; EC50 (mu opioid receptor): 13 nM
5 | CO[C@@H]1O[C@H](C(=O)NCCCC[C@@H](NC(=O)[C@@H](N)Cc2c(C)cc(O)cc2C)C(=O)N[C@@H](Cc2c(C)cc(C)cc2C)C(=O)N[C@@H](Cc2ccccc2)C(N)=O)[C@@H](O)[C@H](O)[C@H]1O [EU-A107, Dmt-D-Lys(C1-glucuronyl)-Tmp-Phe-NH2] (H-[Dmt][dK](βGlcA(1-OMe))[Phe(2,4,6-Me3)]F-NH2; N-terminus assumed) |  |  |  |  |  |  | Characterization (MOP) (mu opioid receptor): Agonist; EC50 (mu opioid receptor): 60 nM
6 | CCCCCCCCO[C@@H]1O[C@H](C(=O)NCCCC[C@H](NC(=O)[C@@H](NC(=O)[C@H](Cc2ccccc2)NC(=O)[C@H](CCC(=O)O)NC(=O)[C@@H]2CCCCNC(=O)CC[C@H](NC(=O)[C@H](CC(=O)O)NC(=O)[C@H](CC(C)C)NC(=O)[C@H](Cc3ccc(O)cc3)NC(=O)[C@H](CCCCN)NC(=O)[C@H](CO)NC(=O)[C@H](Cc3ccc(O)cc3)NC(=O)[C@H](CC(=O)O)NC(=O)[C@H](CO)NC(=O)[C@@H](NC(=O)[C@H](Cc3ccccc3)NC(=O)[C@@H](NC(=O)CNC(=O)[C@H](CCC(N)=O)NC(=O)C(C)(C)NC(=O)[C@@H](N)Cc3c[nH]cn3)[C@@H](C)O)[C@@H](C)O)C(=O)N[C@@H](CCC(N)=O)C(=O)N[C@@H](C)C(=O)N[C@@H](C)C(=O)N2)[C@@H](C)CC)C(=O)N[C@@H](Cc2c[nH]c3ccccc23)C(=O)N[C@@H](CC(C)C)C(=O)N[C@@H](CC(C)C)C(=O)N[C@@H](CCC(N)=O)C(=O)N[C@H](C(N)=O)[C@@H](C)O)[C@@H](O)[C@H](O)[C@H]1O [EU-A992] |  |  | 405 | 104 | 112 | 130 | 
7 | CCCCCCCCCCO[C@@H]1O[C@H](C(=O)NCCCC[C@H](NC(=O)[C@@H](NC(=O)[C@H](Cc2ccccc2)NC(=O)[C@H](CCC(=O)O)NC(=O)[C@@H]2CCCCNC(=O)CC[C@H](NC(=O)[C@H](CC(=O)O)NC(=O)[C@H](CC(C)C)NC(=O)[C@H](Cc3ccc(O)cc3)NC(=O)[C@H](CCCCN)NC(=O)[C@H](CO)NC(=O)[C@H](Cc3ccc(O)cc3)NC(=O)[C@H](CC(=O)O)NC(=O)[C@H](CO)NC(=O)[C@@H](NC(=O)[C@H](Cc3ccccc3)NC(=O)[C@@H](NC(=O)CNC(=O)[C@H](CCC(N)=O)NC(=O)C(C)(C)NC(=O)[C@@H](N)Cc3c[nH]cn3)[C@@H](C)O)[C@@H](C)O)C(=O)N[C@@H](CCC(N)=O)C(=O)N[C@@H](C)C(=O)N[C@@H](C)C(=O)N2)[C@@H](C)CC)C(=O)N[C@@H](Cc2c[nH]c3ccccc23)C(=O)N[C@@H](CC(C)C)C(=O)N[C@@H](CC(C)C)C(=O)N[C@@H](CCC(N)=O)C(=O)N[C@H](C(N)=O)[C@@H](C)O)[C@@H](O)[C@H](O)[C@H]1O [EU-A1167] |  |  | 379 | 171 | 117 | 113 | 
8 | CCCCCCCCCCCO[C@@H]1O[C@H](C(=O)NCCCC[C@H](NC(=O)[C@@H](NC(=O)[C@H](Cc2ccccc2)NC(=O)[C@H](CCC(=O)O)NC(=O)[C@@H]2CCCCNC(=O)CC[C@H](NC(=O)[C@H](CC(=O)O)NC(=O)[C@H](CC(C)C)NC(=O)[C@H](Cc3ccc(O)cc3)NC(=O)[C@H](CCCCN)NC(=O)[C@H](CO)NC(=O)[C@H](Cc3ccc(O)cc3)NC(=O)[C@H](CC(=O)O)NC(=O)[C@H](CO)NC(=O)[C@@H](NC(=O)[C@H](Cc3ccccc3)NC(=O)[C@@H](NC(=O)CNC(=O)[C@H](CCC(N)=O)NC(=O)C(C)(C)NC(=O)[C@@H](N)Cc3c[nH]cn3)[C@@H](C)O)[C@@H](C)O)C(=O)N[C@@H](CCC(N)=O)C(=O)N[C@@H](C)C(=O)N[C@@H](C)C(=O)N2)[C@@H](C)CC)C(=O)N[C@@H](Cc2c[nH]c3ccccc23)C(=O)N[C@@H](CC(C)C)C(=O)N[C@@H](CC(C)C)C(=O)N[C@@H](CCC(N)=O)C(=O)N[C@H](C(N)=O)[C@@H](C)O)[C@@H](O)[C@H](O)[C@H]1O [EU-A1168] |  |  | 380 | 133 | 169 | 164 | 
